These results are taken from PMC9246196, “Novel pyrrolopyrimidine derivatives: design, synthesis, molecular docking, molecular simulations and biological evaluations as antioxidant and anti-inflammatory agents” (Journal of Enzyme Inhibition and Medicinal Chemistry, 2022).

For one data set, the system named is RAW 264.7 cells. The data set is described as follows: MTT cytotoxicity against RAW 264.7 macrophage cells. The class given is cell-based. Conditions: RAW 264.7, MTT. On the procedure:
The macrophage cell line, RAW 264.7 was obtained from the ATCC (American type culture collection). The cells were cultured in RPMI 1640 medium (Roswell Park Memorial Institute) and supplemented with 1% pen/strep and 10% heat-inactivated foetal bovine serum. The cells were incubated, in a humidified incubator, in an atmosphere of 5% CO2 at 37 °C and were subculture twice before the experiment.
(§1) RAW 264.7 cells were suspended in a RPMI medium. After 24 h of seeding 1 × 10^5 cells per well (in 96 well plates) and incubated for 24 h for the experiments. The cells were then treated with the samples at concentrations of 100, 50, 25 and 12.5 μg/mL and incubated for 1 h. They were then stimulated with 10 μg/mL of LPS for another 24 h. The supernatant was gently transferred to new 96-well plates and used for NO determination, while the cells that remained in the old plate were used for the MTT assay of cell viability. Samples (stock) were dissolved in DMSO, and the working samples were prepared in the media. Cell viability was assessed by the mitochondrial dependent reduction of yellow MTT (3–(4,5-dimethylthiazol-2-yl)-2,5-diphenyltetrazolium bromide) to purple formazan.
The percentage of change in viability was calculated according to the formula: [(Reading of extract /Reading of negative control )−1]×100.

Data set [1] concerns LPS-stimulated NO production by RAW 264.7 macrophages. Nature of the data set: Nitric oxide assay (Griess) in LPS-induced RAW 264.7 macrophages. The class given is cell-based. Conditions: Mus musculus; for IC50: RAW264.7, LPS-induced RAW 264.7, read-out: NO inhibition IC50; for inhibition at 12.5 µg/mL / inhibition at 25 µg/mL / inhibition at 50 µg/mL / inhibition at 100 µg/mL: RAW264.7, LPS 10 µg/mL, read-out: NO % inhibition (mean ± SEM). The method, then:
as §1
Nitric oxide production was assayed by measuring nitrite in the supernatants of cultured LPS-RAW 264.7 cells. The assay was carried out as described previously with slight modification[48]^,[50]. After pre-incubation of RAW 264.7 cells (1 × 10^5 cells/mL) with LPS (10 µg/mL) for 24 h, the amount of nitrite, a stable metabolite of NO used as an indicator of NO production in the culture medium was measured using the Griess reagent (1% sulphanilamide and 0.1% naphthyl ethylenediamine dihydrochloride in 2.5% phosphoric acid). A volume of 50 µL of the cell culture medium was mixed with 50 µL of the Griess reagent. Subsequently, the mixture was incubated at room temperature for 15 min and the absorbance was measured at 540 nm by a microplate reader. Fresh culture medium was used as a blank in every experiment. The quantity of nitrite was determined from a sodium nitrite standard curve as expressed in the equation. Nitric oxide inhibition (%)=(optical denisty of control−optical denisty of test /optical denisty of control ) ×100.
Background: Griess reagent forms a coloured azo dye with nitrite.

Data set [2] in a line: DPPH radical scavenging assay. It counts as biochemical. On the procedure: DPPH scavenging potential of samples was determined with a slightly modified method[47]^,[48]. Each sample was prepared at 500 ppm. Serial concentrations of samples were prepared (200 µL, 400 µL and 800 µL). Methanol was added to complete the total volume to 1 mL and all the samples were vortexed well. 1 mL of 0.1 mM DPPH methanolic solution was added to each diluted sample. All the samples were vortexed again, then left to stand for 30 min in the dark at environment temperature. The absorption of the developed colour appeared against the blank reagent was measured at 517 nm using a spectrophotometer. BHT was used as a standard antioxidant. The capability to scavenge DPPH radical was estimated using the following equation: DPPH scavenging ability (% inhibition)=[(A0−A*)/A0]×100
A0 is Control absorption and A* is sample absorption.
On the technique in general: Loss of DPPH colour is used to gauge radical scavenging.

In brackets after ≈: the same amount, converted by molar mass.

By melting point is commonly meant the temperature, or range, at which the solid turns liquid. Broadly, the IC50 is the concentration at which inhibition is half-maximal. For orientation: inhibition means the change of the read-out against control, counted positive when it falls.

As for `NNc1ncnc2c1c(-c1ccccc1)cn2-c1cccc(Cl)c1` [2a, (7–(3-Chlorophenyl)-5-phenyl-7H-pyrrolo[2,3-d]pyrimidin-4-yl)-hydrazine], the melting point lay within 204 to 206 °C.
In turn, `NNc1ncnc2c1c(-c1ccccc1)cn2-c1ccc(Cl)cc1` [2b, (7–(4-Chlorophenyl)-5-phenyl-7H-pyrrolo[2,3-d]pyrimidin-4-yl)-hydrazine] showed a melting point of 217 to 219 °C.
`Clc1cccc(-n2cc(-c3ccccc3)c3c2ncn2cnnc32)c1` [3a, 7–(3-Chlorophenyl)-9-phenyl-7H-pyrrolo[3,2-e][1,2,4]triazolo[4,3-c] pyrimidine] registered a melting point of 176 to 178 °C. For the same compound, in the data set with RAW 264.7 cells (12.5 µg/mL), the “Cytotoxicity of raw cells% (mean ± SEM)” value was determined as 0%. Besides, in the data set on RAW 264.7 cells (25 µg/mL), the “Cytotoxicity of raw cells% (mean ± SEM)” value is given as 76.5 ± 1.9%. Moreover, in the data set on RAW 264.7 cells (50 µg/mL), the “Cytotoxicity of raw cells% (mean ± SEM)” value was found to be 78.7 ± 2.2%. Also, the “Cytotoxicity of raw cells% (mean ± SEM)” value with RAW 264.7 cells (100 µg/mL) is 92.0 ± 1.6%. In addition, in data set [1], the IC50 was determined as 57.3 µg/mL (≈ 166 µM), the inhibition at 12.5 µg/mL amounted to 40.6 ± 2.6%, the inhibition at 25 µg/mL came to 53.1 ± 1.3% and the inhibition at 50 µg/mL was 62.5 ± 1.2%. In addition, the inhibition at 100 µg/mL in data set [1] worked out at 65.6 ± 1.2%. Also, the “DPPH radical-scavenging IC50” value in data set [2] came out at 160.05 µg/mL. Moreover, the “DPPH % Inhibition (mean ± SEM)” value in data set [2] (conc. 100 (µg/mL)) stood at 39.56 ± 0.88%. In addition, the “DPPH % Inhibition (mean ± SEM)” value in data set [2] (conc. 200 (µg/mL)) is 58.09 ± 1.50%. Further, the “DPPH % Inhibition (mean ± SEM)” value in data set [2] (conc. 400 (µg/mL)) was 62.51 ± 0.32%.
On to `Clc1ccc(-n2cc(-c3ccccc3)c3c2ncn2cnnc32)cc1` [3b, 7–(4-Chlorophenyl)-9-phenyl-7H-pyrrolo[3,2-e][1,2,4]triazolo[4,3-c] pyrimidine], for which the melting point lay within 190 to 192 °C.
`S=c1[nH]nc2c3c(-c4ccccc4)cn(-c4ccc(Cl)cc4)c3ncn12` [4b, 7–(4-Chlorophenyl)-9-phenyl-7H-pyrrolo[3,2-e][1,2,4]triazolo[4,3-c]pyramid in-3-thione] returned a melting point of 187 to 189 °C. Besides, in the data set on RAW 264.7 cells (12.5 µg/mL), the “Cytotoxicity of raw cells% (mean ± SEM)” value came out at 0%. Moreover, in the data set on RAW 264.7 cells (25 µg/mL), the “Cytotoxicity of raw cells% (mean ± SEM)” value came out at 69.6 ± 1.3%. In addition, the “Cytotoxicity of raw cells% (mean ± SEM)” value in the data set on RAW 264.7 cells (50 µg/mL) came to 75.2 ± 2.5%. For the same compound, the “Cytotoxicity of raw cells% (mean ± SEM)” value in the data set with RAW 264.7 cells (100 µg/mL) turned out to be 85.4 ± 0.6%. Also, in data set [1], the IC50 is 64.8 µg/mL (≈ 171 µM), the inhibition at 12.5 µg/mL is 39.8 ± 1.9%, the inhibition at 25 µg/mL turned out to be 52.8 ± 1.1% and the inhibition at 50 µg/mL came to 54.3 ± 1.6%. In data set [1], the inhibition at 100 µg/mL stood at 58.1 ± 3.5%. Further, the “DPPH radical-scavenging IC50” value in data set [2] is 129.38 µg/mL. Further, the “DPPH % Inhibition (mean ± SEM)” value in data set [2] (conc. 100 (µg/mL)) came out at 37.97 ± 0.71%. Further, in data set [2] (conc. 200 (µg/mL)), the “DPPH % Inhibition (mean ± SEM)” value is recorded as 77.76 ± 1.60%. In data set [2] (conc. 400 (µg/mL)), the “DPPH % Inhibition (mean ± SEM)” value worked out at 79.55 ± 1.06%.
In turn, `Cc1nnc2c3c(-c4ccccc4)cn(-c4cccc(Cl)c4)c3ncn12` [5a, 7–(3-Chlorophenyl)-3-methyl-9-phenyl-7H-pyrrolo[3,2-e][1,2,4]triazolo[4,3-c] pyrimidine] had a melting point of 227 to 229 °C.
`Cc1nnc2c3c(-c4ccccc4)cn(-c4ccc(Cl)cc4)c3ncn12` [5b, 7–(4-Chlorophenyl)-3-methyl-9-phenyl-7H-pyrrolo[3,2-e][1,2,4]triazolo[4,3-c] pyrimidine] registered a melting point of 201 to 203 °C.
In turn, `O=c1[nH]nc2c3c(-c4ccccc4)cn(-c4cccc(Cl)c4)c3ncn12` [6a, 7–(3-Chlorophenyl)-9-phenyl-7H-pyrrolo[3,2-e][1,2,4]triazolo[4,3-c]pyrimidin-3-one] yielded a melting point of 226 to 228 °C.
The compound `O=c1[nH]nc2c3c(-c4ccccc4)cn(-c4ccc(Cl)cc4)c3ncn12` [6b, 7–(4-Chlorophenyl)-9-phenyl-7H-pyrrolo[3,2-e][1,2,4]triazolo[4,3-c]pyrimidin-3-one] showed a melting point of 233 to 235 °C.
With `Cc1cc(C)n(-c2ncnc3c2c(-c2ccccc2)cn3-c2cccc(Cl)c2)n1` [7a, 7–(3-Chlorophenyl)-4–(3,5-dimethyl-pyrazol-1-yl)-5-phenyl-pyrrolo[2,3-d]pyrimidine], the melting point is 180 to 182 °C.
Regarding `Cc1cc(C)n(-c2ncnc3c2c(-c2ccccc2)cn3-c2ccc(Cl)cc2)n1` [7b, 7–(4-Chlorophenyl)-4–(3,5-dimethyl-pyrazol-1-yl)-5-phenyl-pyrrolo[2,3-d]pyrimidine], the melting point lay in the range of 199 to 201 °C.
Still for that read-out and setting: the figure for `Clc1cccc(-n2cc(-c3ccccc3)c3c(N/N=C/c4ccccc4)ncnc32)c1` [8a, N-[(E)-benzylideneamino]-7–(3-chlorophenyl)-5-phenyl-pyrrolo[2,3-d]pyrimidin-4-amine] is 187 to 189 °C; for `Clc1ccc(-n2cc(-c3ccccc3)c3c(N/N=C/c4ccccc4)ncnc32)cc1` [8b, N-[(E)-benzylideneamino]-7–(4-chlorophenyl)-5-phenyl-pyrrolo[2,3-d]pyrimidin-4-amine] it is 172 to 174 °C; for `Clc1ccc(/C=N/Nc2ncnc3c2c(-c2ccccc2)cn3-c2cccc(Cl)c2)cc1` [8c, 7–(3-Chlorophenyl)-N-[(E)-(4-chlorophenyl)methyleneamino]-5-phenyl-pyrrolo[2,3-d]pyrimidin-4-amine] it is 247 to 249 °C.
Same read-out and setting: the figure for `Clc1ccc(/C=N/Nc2ncnc3c2c(-c2ccccc2)cn3-c2ccc(Cl)cc2)cc1` [8d, 7–(4-Chlorophenyl)-N-[(E)-(4-chlorophenyl)methyleneamino]-5-phenyl-pyrrolo[2,3-d]pyrimidin-4-amine] is 187 to 189 °C.
Turning to `COc1ccc(/C=N/Nc2ncnc3c2c(-c2ccccc2)cn3-c2cccc(Cl)c2)cc1` [8e, 7–(3-Chlorophenyl)-N-[(E)-(4-methoxyphenyl)methyleneamino]-5-phenyl-pyrrolo[2,3-d]pyrimidin-4-amine], the melting point lay within 167 to 169 °C. Also, in the data set on RAW 264.7 cells (12.5 µg/mL), the “Cytotoxicity of raw cells% (mean ± SEM)” value came to 0%. The “Cytotoxicity of raw cells% (mean ± SEM)” value in the data set with RAW 264.7 cells (25 µg/mL) is listed as 65 ± 3.1%. For the same compound, in the data set on RAW 264.7 cells (50 µg/mL), the “Cytotoxicity of raw cells% (mean ± SEM)” value is recorded as 73.1 ± 1.3%. The “Cytotoxicity of raw cells% (mean ± SEM)” value with RAW 264.7 cells (100 µg/mL) worked out at 77.7 ± 1.5%. In addition, in data set [1], the IC50 was about 53 µg/mL (≈ 117 µM), the inhibition at 12.5 µg/mL came to 38.7 ± 1.7%, the inhibition at 25 µg/mL worked out at 66.5 ± 3.7% and the inhibition at 50 µg/mL was 67.5 ± 1.8%. The inhibition at 100 µg/mL in data set [1] was 71.8 ± 1%. The “DPPH radical-scavenging IC50” value in data set [2] was determined as 122.07 µg/mL. The “DPPH % Inhibition (mean ± SEM)” value in data set [2] (conc. 100 (µg/mL)) was determined as 40.63 ± 2.13%. The “DPPH % Inhibition (mean ± SEM)” value in data set [2] (conc. 200 (µg/mL)) came to 82.15 ± 0.14%. In addition, in data set [2] (conc. 400 (µg/mL)), the “DPPH % Inhibition (mean ± SEM)” value stood at 85.22 ± 0.17%.
Regarding `COc1ccc(/C=N/Nc2ncnc3c2c(-c2ccccc2)cn3-c2ccc(Cl)cc2)cc1` [8f, 7–(4-Chlorophenyl)-N-[(E)-(4-methoxyphenyl)methyleneamino]-5-phenyl-pyrrolo[2,3-d]pyrimidin-4-amine], the melting point was 194 to 196 °C.
Turning to `Cc1cc(C(C)(C)C)c(O)c(C(C)(C)C)c1` [BHT, butylated hydroxytoluene, reference compound], in data set [2], the “DPPH radical-scavenging IC50” value came to 128.77 µg/mL. The “DPPH % Inhibition (mean ± SEM)” value in data set [2] (conc. 100 (µg/mL)) is reported as 40.03 ± 0.39%; in data set [2] (conc. 200 (µg/mL)) it was 76.81 ± 0.21%; in data set [2] (conc. 400 (µg/mL)), 90.07 ± 0.26%.
